We go through 23 substances from patent publication US20210189342A1, “COMPOSITIONS AND METHODS FOR MODULATING MONOCYTE AND MACROPHAGE INFLAMMATORY PHENOTYPES AND IMMUNOTHERAPY USES THEREOF” (Verseau Therapeutics, Inc., priority 2018, published 2021).

The subject of one data set is TNFAIP8L2. The experiment in a line: siRNA dose response, TNFAIP8L2 mRNA knockdown, bDNA Assay. The class given is cell-based, human. To be noted: THP-1, 24 hr. As to the method:
(§1) Dose response curves for siRNAs were generated in vitro using a variety of cell lines according to Table 4.
(§2) Briefly, cells were seeded in 96-well plates and reverse transfected with siRNA, Lipofectamine® 2000 (0.5 uL/well; ThermoFisher), and, in some cases, a reporter plasmid (50 ng/well). The reporter plasmid (psiCHECK™-2, Promega) encoded both firefly luciferase and the gene of interest fused to renilla luciferase; silencing of the gene of interest results in proportional silencing of renilla luciferase but leaves firefly luciferase unaffected as an internal control.
(§3) After 24 hr incubation at 37° C., mRNA knockdown was measured using an endpoint assay. For targets without a reporter plasmid, a branched DNA (bDNA) assay was performed according to the manufacturer's instructions (QuantiGene® Singleplex Gene Expression Assay, ThermoFisher) to measure both the target gene and GAPDH (housekeeping gene) mRNA. Data are plotted as siRNA concentration (nM) vs. remaining mRNA (ratio of target gene to GAPDH, normalized to mock siRNA-transfected cells). For targets with a reporter plasmid, a Dual-Glo® Luciferase Assay was performed according to the manufacturer's instructions (Promega) to measure firefly and renilla luciferase expression. Data are plotted as siRNA concentration (nM) vs. remaining mRNA (ratio of renilla to firefly luminescence, normalized to mock siRNA-transfected cells).
(§4) For all dose response curves, a 4-parameter logistic model was applied to determine the IC50 of each siRNA sequence (Table 5 and FIG. 2). Data shown in Table 5 and FIG. 2 represent the mean of quadruplicates, +/−standard deviation.
With “XD-09762: siRNA targeting TNFAIP8L2 (sense 5'-uuuAAuGuAucGcuAccAAdTsdT-3'; antisense 5'-UUGGuAGCGAuAcAUuAAAdTsdT-3'; as printed in the source, key not given here)”, half-maximal inhibition (IC50) was put at 0.226 nM.

“XD-09764: siRNA targeting TNFAIP8L2 (sense 5'-cguuGcGcuGGAAgGAAuudTsdT-3'; antisense 5'-AAUUCCUUCcAGCGcAACGdTsdT-3'; as printed in the source, key not given here)” came in with an IC50 of 2.98 nM.

“XD-09765: siRNA targeting TNFAIP8L2 (sense 5'-cuGcGcGAGGcGcaAuAcAdTsdT-3'; antisense 5'-UGuAUUGCGCCUCGCGcAGdTsdT-3'; RNA with 2'-O-methyl and phosphorothioate modifications, case key not given here, as printed in the source, key not given here)” displayed an IC50 of 0.023 nM.

Take “XD-09766: siRNA targeting TNFAIP8L2 (sense 5'-cccucGAuGuAcAuAGcuudTsdT-3'; antisense 5'-AAGCuAUGuAcAUCGAGGGdTsdT-3'; RNA with 2'-O-methyl and phosphorothioate modifications, case key not given here, as printed in the source, key not given here)”: the IC50 was determined as 0.127 nM.

For “XD-09768: siRNA targeting TNFAIP8L2 (sense 5'-aaAucAAucAuGuuAcAcudTsdT-3'; antisense 5'-AGUGuAAcAUGAUUGAUUUdTsdT-3'; RNA with 2'-O-methyl and phosphorothioate modifications, case key not given here, as printed in the source, key not given here)”, the IC50 was determined as 0.353 nM.

Regarding “XD-09796: siRNA targeting TNFAIP8L2 (sense 5'-gcAcAuAGcAAGcuGAAcudTsdT-3'; antisense 5'-AGUUcAGCUUGCuAUGUGCdTsdT-3'; RNA with 2'-O-methyl and phosphorothioate modifications, case key not given here, as printed in the source, key not given here)”, the IC50 is 11.6 nM.

For the next data set, the system named is SPI1. The experiment in a line: siRNA dose response, SPI1 mRNA knockdown, bDNA Assay. The data set is classed as cell-based, human. To be noted: THP-1, 24 hr. Here is the method:
as §1, §2, §3, §4
On to “XD-09780: siRNA targeting SPI1 (sense GGAUCUAUACCAACGCCAATT; antisense UUGGCGUUGGUAUAGAUCCTT; 2'-O-methyl and phosphorothioate modified, lower-case key not given here)”, for which half-maximal inhibition (IC50) required 2.66 nM.

Consider “XD-09781: siRNA targeting SPI1 (sense CGCCAAACGCACGAGUAUUTT; antisense AAUACUCGUGCGUUUGGCGTT; 2'-O-methyl and phosphorothioate modified, lower-case key not given here)”, for which the 50% inhibitory concentration (IC50) was 0.455 nM.

“XD-09783: siRNA targeting SPI1 (sense GCGACAUGAAGGACAGCAUTT; antisense AUGCUGUCCUUCAUGUCGCTT; 2'-O-methyl and phosphorothioate modified, lower-case key not given here)” gave a 50% inhibitory concentration (IC50) of 1.11 nM.

“XD-09785: siRNA targeting SPI1 (sense GUCUCAAGUCCGUAUGUAATT; antisense UUACAUACGGACUUGAGACTT; 2'-O-methyl and phosphorothioate modified, lower-case key not given here)”: the half-inhibitory concentration (IC50) stood at 0.479 nM.

Regarding “XD-09786: siRNA targeting SPI1 (sense UCUCAAGUCCGUAUGUAAATT; antisense UUUACAUACGGACUUGAGATT; 2'-O-methyl and phosphorothioate modified, lower-case key not given here)”, half-maximal inhibition (IC50) required 0.25 nM.

“XD-09787: siRNA targeting SPI1 (sense CCGUAUGUAAAUCAGAUCUTT; antisense AGAUCUGAUUUACAUACGGTT; 2'-O-methyl and phosphorothioate modified, lower-case key not given here)”: half-maximal inhibition (IC50) required 0.075 nM.

In the case of “XD-09788: siRNA targeting SPI1 (sense 5'-acAAGuAAAGuuAuucucAdTsdT-3'; antisense 5'-UGAGAAuAACUUuACUUGUdTsdT-3'; as printed in the source, key not given here)”, half-maximal inhibition (IC50) was put at 1.32 nM.

“XD-09789: siRNA targeting SPI1 (sense 5'-aaAGuuAuucucAauccAudTsdT-3'; antisense 5'-AUGGAUUGAGAAuAACUUUdTsdT-3'; as printed in the source, key not given here)” displayed a 50% inhibitory concentration (IC50) of 0.442 nM.

Another data set relates to LILRB2. The experiment in a line: siRNA dose response, LILRB2 mRNA knockdown, Dual-Glo Luciferase Assay. The data set is classed as cell-based, human. To be noted: Hepa1-6 + reporter plasmid, 24 hr. Here is the method:
as §1, §2, §3, §4
Consider “XD-10590: siRNA targeting LILRB2 (sense 5'-caGcAuCuuGGAuuAcAcsa-3'; antisense 5'-dTGUGuAAUCcAAGAUGCUGusu-3'; RNA with 2'-O-methyl and phosphorothioate modifications, case key not given here, as printed in the source, key not given here)”, for which the IC50 was 0.068 nM.

The subject of another data set is CD207. Description: siRNA dose response, CD207 mRNA knockdown, Dual-Glo Luciferase Assay. The class given is cell-based, human. Conditions: Hepal-6 + reporter plasmid, 24 hr. As to the method:
as §1, §2, §3, §4
“XD-09240: siRNA targeting CD207 (sense 5'-guGAGcAcucAGGauGAcudTsdT-3'; antisense 5'-AGUcAUCCUGAGUGCUcACdTsdT-3'; as printed in the source, key not given here)”: the IC50 amounted to 0.678 nM.

For the substance “XD-09241: siRNA targeting CD207 (sense 5'-gaAAAcAcccAcAguccGudTsdT-3'; antisense 5'-ACGGACUGUGGGUGUUUUCdTsdT-3'; as printed in the source, key not given here)”, the half-maximal inhibitory concentration (IC50) worked out at 0.203 nM.

With “XD-09242: siRNA targeting CD207 (sense 5'-caGuccGuGcuGcauuAAudTsdT-3'; antisense 5'-AUuAAUGcAGcACGGACUGdTsdT-3'; as printed in the source, key not given here)”, the IC50 was 0.009 nM.

Regarding “XD-09243: siRNA targeting CD207 (sense 5'-guccGuGcuGcAuuAAucudTsdT-3'; antisense 5'-AGAUuAAUGcAGcACGGACdTsdT-3'; as printed in the source, key not given here)”, the IC50 was determined as 0.198 nM.

For “XD-09245: siRNA targeting CD207 (sense 5'-gcGuucAGAuccAgAuGGudTsdT-3'; antisense 5'-ACcAUCUGGAUCUGAACGCdTsdT-3'; as printed in the source, key not given here)”, the IC50 came out at 0.02 nM.

Turning to “XD-09246: siRNA targeting CD207 (sense 5'-aaAuAcAAAGAuccGGGcAdTsdT-3'; antisense 5'-UGCCCGGAUCUUUGuAUUUdTsdT-3'; as printed in the source, key not given here)”, the half-inhibitory concentration (IC50) was determined as 0.025 nM.

In the case of “XD-09248: siRNA targeting CD207 (sense 5'-uauucuAcAGGuGguuucudTsdT-3'; antisense 5'-AGAAACcACCUGuAGAAuAdTsdT-3'; as printed in the source, key not given here)”, the IC50 is under 0.005 nM.

As for “XD-09249: siRNA targeting CD207 (sense 5'-uauAGuGccGAGcaGuucudTsdT-3'; antisense 5'-AGAACUGCUCGGcACuAuAdTsdT-3'; RNA with 2'-O-methyl and phosphorothioate modifications, case key not given here, as printed in the source, key not given here)”, the IC50 stood at 0.153 nM.
